Data taken from article PMC11612208, “A novel small molecule Enpp1 inhibitor improves tumor control following radiation therapy by targeting stromal Enpp1 expression” (Scientific Reports, 2024).

Experiments:
[1] = system: cDC1 and cDC2 in MC38 tumors; test: Flow cytometry of myeloid infiltration in MC38 tumors; format: in vivo, mouse; details: 4 days following radiation time point (d18)
Method: Analysis of tumor infiltrating myeloid cells was performed as previously described. Briefly, following dissection, tumors were weighed and minced into small fragments, then transferred into C tubes from Miltenyi Biotec containing enzyme digest mix with 250U/mL collagenase IV (Worthington Biochemical, #LS004188), 30U/mL DNase I (Millipore-Sigma, #4536282001), 5mM CaCl2, 5% heat inactivated FBS and HBSS. Tissue was dissociated using a GentleMACS tissue dissociator from Miltenyi Biotech. This was followed by incubation at 37 °C for 30 min with agitation. Enzymatic reactions were quenched using ice cold RPMI containing 10% FBS and 2mM EDTA. Single cell suspensions were then filtered through 100 μm (tumor) or 40 μm (dLN) nylon cell strainers to remove macroscopic debris. Cells were washed and counted for staining. 2 × 10^6 cells were stained with Zombie Aqua Viability Dye from BioLegend (#423102) in PBS for 10 min on ice, then Fc receptors were blocked with anti-CD16/CD32 antibodies from BD Biosciences (2.4G2) for an additional 10 min. After centrifugation, the supernatant was removed and cell were stained with a surface antibody cocktail containing in FACS buffer (PBS, 2mM EDTA, 2% FBS) and Brilliant Stain Buffer Plus from BD Biosciences (#566385) for 20 min on ice. […] Data were analyzed using FlowJo software from Tree Star, v10.7. […]

CT26 tumors = test: CT26 tumor model in BALB/c mice, VIR3 oral gavage +/- 12 Gy focal RT, survival; format: in vivo, mouse; details: daily oral gavage for 21 days
Method: (§1) Tumors were implanted subcutaneously into the right flank as follows: C57BL/6 2 × 10^5 MC38; BALB/c 2 × 10^5 CT26. When tumors were approximately 5 mm in average diameter at approximately 10–14 days following implantation, mice were randomized to receive treatment with CT-guided radiation using the Small Animal Radiation Research Platform (SARRP) from XStrahl. Dosimetry was performed using Murislice software from XStrahl. The SARRP delivered a single dose of 12 Gy to an isocenter within the tumor using a 10 mm x 10 mm collimator and a 45° beam angle to minimize dose delivery to normal tissues. The Enpp1 inhibitor VIR3 was delivered through oral gavage starting 1 day prior to RT daily for 21 days. Tumors were measured using calipers in two directions and reported as mean tumor diameter. Survival curves were based on an endpoint of tumor diameter of greater than 12 mm in any direction.

[2] = target: T1, HepG2 cells that express ENPP1 on their surface (Homo sapiens, UniProt P22413); test: Cellular inhibition of cGAMP hydrolysis on HepG2 cells (cGAMP ELISA); format: cell-based; details: 100 ng/mL 2'3'-cGAMP, overnight (20 h), read-out: EC50, protection of spiked-in cGAMP from hydrolysis
T1 construct: HepG2 cells that express ENPP1 on their surface; host or cells: HepG2
T1 sequence (P22413 1-925): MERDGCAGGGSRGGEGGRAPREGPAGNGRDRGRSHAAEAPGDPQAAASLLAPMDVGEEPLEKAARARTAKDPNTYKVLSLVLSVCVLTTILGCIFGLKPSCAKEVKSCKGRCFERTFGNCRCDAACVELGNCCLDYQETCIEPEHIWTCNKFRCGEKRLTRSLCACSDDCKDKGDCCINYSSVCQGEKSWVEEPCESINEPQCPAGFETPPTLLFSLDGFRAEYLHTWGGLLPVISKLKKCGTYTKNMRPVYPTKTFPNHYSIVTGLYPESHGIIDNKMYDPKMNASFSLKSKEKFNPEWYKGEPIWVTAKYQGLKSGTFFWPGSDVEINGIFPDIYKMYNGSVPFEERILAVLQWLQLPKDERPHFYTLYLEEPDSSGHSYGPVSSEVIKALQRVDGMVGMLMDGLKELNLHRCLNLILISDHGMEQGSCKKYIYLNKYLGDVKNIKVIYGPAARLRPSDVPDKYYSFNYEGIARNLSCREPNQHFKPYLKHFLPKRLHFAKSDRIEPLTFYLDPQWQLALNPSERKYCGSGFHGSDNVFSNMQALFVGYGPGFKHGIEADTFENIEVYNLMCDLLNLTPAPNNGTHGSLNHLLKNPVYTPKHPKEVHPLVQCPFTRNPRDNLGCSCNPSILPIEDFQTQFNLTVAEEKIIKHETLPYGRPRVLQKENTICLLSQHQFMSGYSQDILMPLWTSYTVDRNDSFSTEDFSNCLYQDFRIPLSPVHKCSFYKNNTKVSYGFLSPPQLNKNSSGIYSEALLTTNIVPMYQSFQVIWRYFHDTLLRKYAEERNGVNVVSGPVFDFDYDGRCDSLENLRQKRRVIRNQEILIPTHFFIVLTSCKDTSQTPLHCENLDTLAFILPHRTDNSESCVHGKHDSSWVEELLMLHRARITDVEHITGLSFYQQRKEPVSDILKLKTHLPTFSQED
Method: (§2) Enzymatic inhibition assays were performed by incubating 1.5 nM ENPP1 (R&D Systems cat# 6136-EN-010) with serial dilutions of Vir-3 for 15 minutes at 37 °C in buffer (50mM Tris pH 8.0, 250mM NaCl, 0.5mM CaCl2, 1uM ZnCl2, 1% DMSO) before adding 20 uM 2’3’-cGAMP (Invivogen cat.# tlrl-nacga23). The reaction was incubated for 30 min at 37 °C prior to assessing the generated AMP using the AMP-Glo assay (Promega cat.# V5012). Cellular inhibition of cGAMP hydrolysis was performed using HepG2 cells pre-incubated with serial dilutions of Vir-3 in DMEM + 10% Charcoal stripped FBS for 30 min at 37 °C with 5% CO2. 100 ng/mL of 2’3’-cGAMP was then added to the cells and incubated for 20 h at 37 °C with 5% CO2. Media was then removed and the remaining cGAMP was quantified using a 2’3’-cGAMP ELISA kit (Cayman Chemical cat.# 501700).

MC38 and CT26 tumors = test: RNASeq of tumors 4 days following radiation treatment; format: in vivo, mouse; details: VIR3 treatment
Method: Mice were implanted with tumors and randomized to treatment with 12 Gy RT and VIR3 as above. 4d following RT, the tumors were harvested, debulked and immediately flash frozen by rapid immersion in liquid nitrogen. Frozen tumors were crushed, treated with 500 µl of RNAlater, then frozen at -80 °C. To extract RNA, the samples were thawed on ice, and 500 µl of buffer RLT (QIAGEN Cat. No. 79219) was added and samples were homogenized. Following centrifugation, RNA was isolated using a QIAGEN RNeasy Plus Mini Kit (Cat No. 74134), according to the manufacturer’s instructions. Quality was checked on nanodrop (ND-1000) and the quantity of RNA was determined on Qubit 4 flourometer. To prepare for sequencing, samples were processed using an Illumnia TruSeq® Stranded mRNA Library Prep kit with Illumina TruSeq RNA Single Indexes Set A and Set B barcoding kits. An Illumnia NovaSeq 6000 S1 Reagent Kit v1.5 was used to make RNA libraries along with a NovaSeq XP 2-Lane Kit v1.5. RNA libraries were sequenced on NovaSeq 6000.
Demultiplexed fastq files for all samples were first processed with FastQC for general quality control. All the samples in the sequencing run passed read level QC with at least 17 million reads per sample. Average read depth across all samples were 51 million reads. Raw illumina BCL data was demultiplexed using Illumina bcl2fastq2 v2.20. Gene expression counts were quantified using salmon-v.1.1.0 [76] for all samples sequenced. Differential gene expression analysis was performed using the R software package edgeR[77]. Differential gene expression analysis was performed on all groups of Tumor+/-Drug+/-RT combinations. Gene set enrichment analysis was performed using GSEA v4.3.2 Preranked method[78],[79]. The following genesets; c3.all.v2023.2.Hs.symbols.gmt, c5.all.v2023.2.Hs.symbols.gmt, c7.all.v2023.2.Hs.symbols.gmt from Molecular Signatures Database (gsea-msigdb.org) were used for enrichment analysis.

MC38 tumors = test: MC38 tumor model, VIR3 oral gavage +/- 12 Gy focal RT, survival; format: in vivo, mouse
Method: as §1
To deplete CD8 T cells, 200 µg of depleting anti-CD8b (53 − 5.8, BioXCell, West Lebanon, NH) were administered intraperitoneally. This administration took place one day before the first dose of Vir3, followed by two additional anti-CD8b administrations at 7-day intervals.

Enpp1 [3] = target: T2, Enpp1 (Homo sapiens, UniProt P22413); test: Selectivity and specificity for Enpp1 (statement); details: additional studies necessary to confirm in vivo
T2 sequence (P22413 1-925): T1 sequence (P22413 1-925)

Enpp1 [4] = target: T2, Enpp1; test: Enzymatic inhibition of recombinant ENPP1 cGAMP hydrolysis (AMP-Glo); format: biochemical; set-up: purchased R&D Systems 6136-EN-010; details: recombinant ENPP1 1.5 nM, 20 uM 2'3'-cGAMP; value is the lower threshold of the assay
Method: as §2

[5] = In vivo pharmacokinetics, IV and PO; details: mouse
Method: For pharmacokinetic analysis, female C57BL6 mice were dosed with Vir-3 by either IV administration or oral gavage or IV administration either once or daily for 5 days. 3 mice were used per time point with staggered groups to cover all times. Blood was collected at 0.25, 0.5, 1, 3-, 5-, 8- and 24-hours post-dose into heparinized tubes. Plasma was prepared from each sample and protein precipitated prior to LC-MS/MS injection. Levels of Vir-3 were quantitated, and data was analyzed using Certara’s Phoenix Winnonlin.

[6] = Toxicity observation in treated mice; format: in vivo; details: mice treated with oral VIR3

## COc1ccc2c(Nc3ccc(S(=N)(=O)NCC(C)O)cc3)ccnc2c1 (centres unmarked) [VIR3]
[1]
  dendritic cells (cDC1, cDC2) in tumor, VIR3 alone: can cause DC loss
CT26 tumors; 12 Gy on day 14
  response to radiation therapy (survival), VIR3 + RT: significantly improved the response to radiation therapy
CT26 tumors; no RT
  tumor growth, VIR3 alone: did not impact tumor growth alone
[2]
  EC50: 6.7 nM
MC38 and CT26 tumors; CT26 and MC38 tumors
  Cdkn1a and Ccl2 gene expression in tumor: not impacted
MC38 and CT26 tumors; both CT26 and MC38 tumors
  Tsc33d3 gene expression in tumor: upregulated
MC38 and CT26 tumors; untreated and irradiated CT26 and MC38 tumors, FDR correction
  Wee1 gene expression in tumor: significantly regulated
MC38 tumors; MC38 tumors in C57BL/6 mice, daily oral gavage for 21 days, 12 Gy on second day of dosing
  response to radiation therapy (survival), VIR3 + RT: significantly improved the response to radiation therapy
MC38 tumors; MC38 tumors in C57BL/6 mice, daily oral gavage for 21 days, no RT
  tumor growth, VIR3 alone: did not impact tumor growth alone
MC38 tumors; MC38 tumors in IFNAR1-/- mice
  response to RT + VIR3 with loss of IFNAR1 in host cells: completely abrogated all responses to treatment
MC38 tumors; MC38 tumors in STING-/- mice, no statistically significant difference in survival by logrank test
  tumor control by RT + VIR3 with loss of STING in host cells: fewer mice cured
MC38 tumors; MC38 tumors, wt mice, anti-CD8 given
  tumor control by RT + VIR3 with CD8 depletion: abrogated tumor control
Enpp1 [3]
  selectivity and specificity for Enpp1: high selectivity and specificity
Enpp1 [4]
  IC50: < 0.75 nM
[5]; P.O. 60 mg/kg
  Cmax, total: 795 ng/mL
[5]; comparing IV and PO routes
  oral bioavailability (in words): low
[5]; female, C57BL6, plasma, iv, I.V. 1 mg/kg
  half-life: 48.3 h
[5]; female, C57BL6, plasma, iv, I.V. 1 mg/kg, approximate given extrapolation from a portion of AUCinf
  clearance: ~27.7 mL/min/kg
[5]; female, C57BL6, plasma, iv, I.V. 1 mg/kg, read-out: Vss
  Vd: 52.5 L/kg
[5]; female, C57BL6, plasma, oral, P.O. 60 mg/kg vs I.V. 1 mg/kg
  bioavailability: 5.7%
[5]; female, C57BL6, plasma, po, P.O. 60 mg/kg
  half-life: 24.3 h
[5]; female, C57BL6, plasma, po, P.O. 60 mg/kg, read-out: AUC0-last, total
  AUC(0-t): 1420 ng·h/mL
[6]
  toxicity: toxicity was not observed
